Laboratory results from US20150259429A1, “CLUSTER OF DIFFERENTIATION 36 (CD36) AS A THERAPEUTIC TARGET FOR HIV INFECTION” (INSTITUT CURIE, priority 2012, published 2015).
Where a SMILES comes first, the peptide text is derived from it. [ ]: non-standard residue; d: D form. dTrp(2-Me) = Cc1[nH]c2ccccc2c1C[C@@H](N)C(=O)O

Key:
[1] = molecular target: CD36 (human), on primary macrophages or HeLa-CD36 cells (human) (UniProt P16671); assay: cell-based or functional assay
[2] = tested on: HIV-1-infected macrophages; assay: CD36 mAb blocking assay: p24 in supernatant and cell lysate of HIV-1-infected macrophages (ELISA); settings: overnight exposure, comparison with CD36 ligands (FIG. 15E)
[3] = tested on: HIV-1-infected primary macrophages; assay: p24 Gag release by HIV-1-infected macrophages after siRNA transfection (ELISA); settings: Tsg101 knock down (positive control) compared with CD36 silencing
CD36 [4] = settings: binding site competition; cited from earlier work
CD36 [5] = settings: cited from earlier work

## CD36-specific mAb clone CLB-IVC7 (Immunotools) (antibody)
[1]
  p24 release in the culture supernatant of HIV-1-infected macrophages (ELISA), titration of the mAb: 32 ng/mL

## Trombospondin-1: endogenous ligand of CD36
[2]
  release of p24: none of the two ligands reduced

## type-I Collagen: endogenous ligand of CD36, purchased from Sigma
[2]
  release of p24: none of the two ligands reduced

## CAGUUUAUCAUUCAAGUGUAA (listed as RNA, chemistry not given here) [Tsg101]
[3]
  extent of the inhibition of p24 release: similar

## Cc1[nH]c2ccccc2c1C[C@@H](NC(=O)[C@@H](N)Cc1cnc[nH]1)C(=O)N[C@@H](C)C(=O)N[C@@H](Cc1c[nH]c2ccccc12)C(=O)N[C@H](Cc1ccccc1)C(=O)N[C@@H](CCCCN)C(N)=O [Hexarelin, hexarelin] (H-H[dTrp(2-Me)]AW[dF]K-NH2)
CD36 [4]
  CD36-mediated uptake of oxLDLs: blocks

## Cc1c(C)c2c(c(C)c1O)CC[C@@](C)(CCC[C@H](C)CCC[C@H](C)CCCC(C)C)O2 [α-tocopherol]
CD36 [5]
  uptake of oxLDLs into macrophages: reduce
CD36 [5]; macrophages
  expression of CD36: reduce
